Reference: ChEMBL document CHEMBL1201862, “PubChem BioAssay data set” (2004)
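Following 48 hours of exposure in 96-well plates, responses at five concentrations were used to interpolate endpoints linearly. Abbreviation: GI50, concentration required for 50% inhibition of growth.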 The source made the active and inactive calls. Rule as the data show it: active = GI50 up to about 1.1 µM and inactive = higher.

Tests used:
Assay in all cases: NCI anticancer screen, dose series, 48 h
SR = test system: SR
786-0 = test system: 786-0
OVCAR-3 = test system: OVCAR-3
SNB-75 = test system: SNB-75
SK-MEL-2 = test system: SK-MEL-2
UACC-257 = test system: UACC-257
HL-60 = test system: HL-60
SNB-19 = test system: SNB-19
T47D = test system: T47D
LOX IMVI = test system: LOX IMVI
DU-145 = test system: DU-145
PC-3 = test system: PC-3
MOLT-4 = test system: MOLT-4
HCT-15 = test system: HCT-15
Hs-578T = test system: Hs-578T
IGROV-1 = test system: IGROV-1
SK-MEL-5 = test system: SK-MEL-5
SN12C = test system: SN12C
SK-OV-3 = test system: SK-OV-3
A549 = test system: A549

Row | SMILES | GI50 (SR) | GI50 (786-0) | GI50 (OVCAR-3) | GI50 (SNB-75) | GI50 (SK-MEL-2) | GI50 (UACC-257) | GI50 (HL-60) | GI50 (SNB-19) | GI50 (T47D) | GI50 (LOX IMVI) | GI50 (DU-145) | GI50 (PC-3) | GI50 (MOLT-4) | GI50 (HCT-15) | GI50 (Hs-578T) | GI50 (IGROV-1) | GI50 (SK-MEL-5) | GI50 (SN12C) | GI50 (SK-OV-3) | GI50 (A549)
1 | COC(=O)c1ccc(-n2c(C)nc(=O)c(-c3ccccc3)c2C)cc1 | > 100 µM (inactive) | > 100 µM (inactive) | > 100 µM (inactive) | > 100 µM (inactive) | 30.7 µM (inactive) | > 100 µM (inactive) | > 100 µM (inactive) | > 100 µM (inactive) | > 100 µM (inactive) | > 100 µM (inactive) | > 100 µM (inactive) | > 100 µM (inactive) | > 100 µM (inactive) | > 100 µM | > 100 µM (inactive) | > 100 µM (inactive) | > 100 µM (inactive) | > 100 µM (inactive) | > 100 µM (inactive) | > 100 µM (inactive)
2 | ON=C(CC(O)(C(F)(F)Cl)C(F)(F)Cl)CC(O)(C(F)(F)Cl)C(F)(F)Cl | 4.58 µM (inactive) | 5.21 µM (inactive) | 3.23 µM (inactive) | 6.61 µM (inactive) | 3.03 µM (inactive) | 4.38 µM (inactive) | 4.1 µM (inactive) | 4.25 µM (inactive) | 3.37 µM (inactive) | 5.26 µM (inactive) | 3.28 µM (inactive) | 3.33 µM (inactive) | 4.83 µM (inactive) | 3.55 µM | 3.52 µM (inactive) | 6.37 µM (inactive) | 4.2 µM (inactive) | 4.67 µM (inactive) | 2.99 µM (inactive) | 5.46 µM (inactive)
3 | COC(=O)c1sc2c(c1C(=O)OC)/C(=N/c1ccc(OC)cc1)S/C2=N\c1ccc(OC)cc1 | 0.485 µM (active) | 0.426 µM (active) | 0.611 µM (active) | 0.787 µM (active) | 0.624 µM (active) | 1.32 µM (inactive) | 0.245 µM (active) | 1.52 µM (inactive) | 0.982 µM (active) | 0.258 µM (active) | 0.525 µM (active) | 0.462 µM (active) | 0.248 µM (active) | 0.452 µM | 1.5 µM (inactive) | 1.2 µM (inactive) | 1.21 µM (inactive) | 0.644 µM (active) | 1.69 µM (inactive) | 1.31 µM (inactive)
